Earlier results, collected in patent publication US20180103657A1, “FROZEN CONFECTION” (Conopco, Inc., d/b/a UNILEVER, priority 2015, published 2018).

Conditions: partition coefficient at 20 degrees centigrade

## CCCC(=O)OCC [Ethyl butyrate]
  Log P [flavour compounds]: 1.8
